What all share (type): in vivo
For assay [1], the system named is Abutilon theophrasti. Kind of assay: Post-emergence herbicidal activity, ABUTH. On the set-up: key: 5=total damage to plant; 0=no damage to plant. As to conditions: 1000 g/Ha, sprayed post-emergence (8 days cultivation), evaluated after 13 days, scale 0-5. The procedure: (§1) Seeds of a variety of test species were sown in standard soil in pots. After 8 days cultivation (post-emergence) under controlled conditions in a glasshouse (at 24/16° C., day/night; 14 hours light; 65% humidity), the plants were sprayed with an aqueous spray solution derived from the formulation of the technical active ingredient in acetone/water (50:50) solution containing 0.5% Tween 20 (polyoxyethelyene sorbitan monolaurate, CAS RN 9005-64-5). The test plants were then grown in a glasshouse under controlled conditions (at 24/16° C., day/night; 14 hours light; 65% humidity) and watered twice daily. After 13 days, the test was evaluated (5=total damage to plant; 0=no damage to plant).

In assay [2] the test system is Setaria faberi. Kind of assay: Pre-emergence herbicidal activity, SETFA. On the set-up: key: 5=total damage to plant; 0=no damage to plant. The settings on record: 1000 g/Ha, sprayed pre-emergence, evaluated after 13 days, scale 0-5. The procedure: as §1, with “After” for “After 8 days”, “for one day (pre-emergence)” for “(post-emergence)”
The test system of assay [3] is Zea mays. Kind of assay: Post-emergence herbicidal activity, ZEAMX. Also on record: key: 5=total damage to plant; 0=no damage to plant. The settings on record: 1000 g/Ha, sprayed post-emergence (8 days cultivation), evaluated after 13 days, scale 0-5. The method, then: as §1
In assay [4] the test system is Zea mays. Kind of assay: Pre-emergence herbicidal activity, ZEAMX. The settings on record: 1000 g/Ha, sprayed pre-emergence, evaluated after 13 days, scale 0-5. The procedure: as §1, with “After” for “After 8 days”, “for one day (pre-emergence)” for “(post-emergence)”
In assay [5] the test system is Amaranthus retroflexus. Kind of assay: Pre-emergence herbicidal activity, AMARE. On the set-up: key: 5=total damage to plant; 0=no damage to plant. As to conditions: 1000 g/Ha, sprayed pre-emergence, evaluated after 13 days, scale 0-5. The method, then: as §1, with “After” for “After 8 days”, “for one day (pre-emergence)” for “(post-emergence)”
Assay [6] deals with Abutilon theophrasti. Kind of assay: Pre-emergence herbicidal activity, ABUTH. Also on record: key: 5=total damage to plant; 0=no damage to plant. As to conditions: 1000 g/Ha, sprayed pre-emergence, evaluated after 13 days, scale 0-5. The procedure:
as §1, with “After” for “After 8 days”, “for one day (pre-emergence)” for “(post-emergence)”

The subject of assay [7] is Alopecurus myosuroides. Kind of assay: Post-emergence herbicidal activity, ALOMY. Also on record: key: 5=total damage to plant; 0=no damage to plant. The settings on record: 1000 g/Ha, sprayed post-emergence (8 days cultivation), evaluated after 13 days, scale 0-5. The procedure:
as §1

In assay [8] the test system is Amaranthus retroflexus. Kind of assay: Post-emergence herbicidal activity, AMARE. The settings on record: 1000 g/Ha, sprayed post-emergence (8 days cultivation), evaluated after 13 days, scale 0-5. Also on record: key: 5=total damage to plant; 0=no damage to plant. The method, then:
as §1

Assay [9] concerns Alopecurus myosuroides. In words: Pre-emergence herbicidal activity, ALOMY. As to conditions: 1000 g/Ha, sprayed pre-emergence, evaluated after 13 days, scale 0-5. The procedure: as §1, with “After” for “After 8 days”, “for one day (pre-emergence)” for “(post-emergence)”
Assay [10] deals with Setaria faberi. In words: Post-emergence herbicidal activity, SETFA. Also on record: key: 5=total damage to plant; 0=no damage to plant. As to conditions: 1000 g/Ha, sprayed post-emergence (8 days cultivation), evaluated after 13 days, scale 0-5. The procedure:
as §1

Assay [11] relates to Echinochloa crus-galli. Kind of assay: Post-emergence herbicidal activity, ECHCG. Also on record: key: 5=total damage to plant; 0=no damage to plant. As to conditions: 1000 g/Ha, sprayed post-emergence (8 days cultivation), evaluated after 13 days, scale 0-5. The procedure: as §1
For assay [12], the system named is Echinochloa crus-galli. Kind of assay: Pre-emergence herbicidal activity, ECHCG. Also on record: key: 5=total damage to plant; 0=no damage to plant. The settings on record: 1000 g/Ha, sprayed pre-emergence, evaluated after 13 days, scale 0-5. The procedure: as §1, with “After” for “After 8 days”, “for one day (pre-emergence)” for “(post-emergence)”

`C=CCC1C(O)N(c2cc(C(C)(C)C)ncn2)C(=O)N1C` (single isomer, unassigned) [Example A33]: the “ABUTH damage score, application post-emergence” value in assay [1] turned out to be 5. Also, in assay [2], the “SETFA damage score, application pre-emergence” value came to 4. Moreover, the “ZEAMX damage score, application post-emergence” value in [3] was 3. In assay [4], the “ZEAMX damage score, application pre-emergence” value was 3. In addition, the “AMARE damage score, application pre-emergence” value in assay [5] came to 5. The “ABUTH damage score, application pre-emergence” value in assay [6] is 5. Moreover, the “ALOMY damage score, application post-emergence” value in [7] was found to be 5. The “AMARE damage score, application post-emergence” value in assay [8] is on record as 5. Also, the “ALOMY damage score, application pre-emergence” value in assay [9] was found to be 4. Further, the “SETFA damage score, application post-emergence” value in [10] worked out at 5. For the same compound, the “ECHCG damage score, application post-emergence” value in assay [11] turned out to be 5. Also, in assay [12], the “ECHCG damage score, application pre-emergence” value is given as 5.

Regarding `CON1C(=O)N(c2cc(C(C)(C)C)ncn2)C(O)C1C` (stereo not shown) [Example A6, 1-(6-tert-butylpyrimidin-4-yl)-5-hydroxy-3-methoxy-4-methyl-imidazolidin-2-one], in assay [1], the “ABUTH damage score, application post-emergence” value came out at 5. In addition, in assay [2], the “SETFA damage score, application pre-emergence” value worked out at 5. For the same compound, in assay [3], the “ZEAMX damage score, application post-emergence” value was determined as 5. Further, the “AMARE damage score, application pre-emergence” value in assay [5] stood at 5. In addition, the “ALOMY damage score, application post-emergence” value in assay [7] was found to be 5. In addition, the “AMARE damage score, application post-emergence” value in assay [8] is 5. In addition, in [9], the “ALOMY damage score, application pre-emergence” value was found to be 4. The “SETFA damage score, application post-emergence” value in assay [10] amounted to 5. In addition, the “ECHCG damage score, application post-emergence” value in assay [11] is recorded as 5. The “ECHCG damage score, application pre-emergence” value in assay [12] came to 5.

For `CCO[C@@H]1C(O)N(c2cc(C(C)(C)F)ncn2)C(=O)N1C` (stereo partly shown) [Example A38], the “ABUTH damage score, application post-emergence” value in assay [1] is 5. Moreover, the “SETFA damage score, application pre-emergence” value in assay [2] amounted to 5. Besides, the “ZEAMX damage score, application post-emergence” value in [3] is 5. The “ZEAMX damage score, application pre-emergence” value in assay [4] was determined as 2. In assay [5], the “AMARE damage score, application pre-emergence” value was 5. In addition, the “ABUTH damage score, application pre-emergence” value in [6] amounted to 5. In assay [8], the “AMARE damage score, application post-emergence” value is 5. Further, the “SETFA damage score, application post-emergence” value in assay [10] is 5. In addition, the “ECHCG damage score, application post-emergence” value in [11] worked out at 5. Further, the “ECHCG damage score, application pre-emergence” value in assay [12] worked out at 5.

As for `CN1CC(O)N(c2cc(C(F)(F)Cl)ncn2)C1=O` (stereo not shown) [Example A39], in assay [1], the “ABUTH damage score, application post-emergence” value amounted to 5. Also, in assay [2], the “SETFA damage score, application pre-emergence” value was determined as 5. Further, in assay [3], the “ZEAMX damage score, application post-emergence” value was 5. The “ZEAMX damage score, application pre-emergence” value in [4] worked out at 2. The “AMARE damage score, application pre-emergence” value in assay [5] stood at 5. Also, the “ABUTH damage score, application pre-emergence” value in [6] is 5. In addition, the “AMARE damage score, application post-emergence” value in assay [8] is 5. For the same compound, the “SETFA damage score, application post-emergence” value in [10] is 5. The “ECHCG damage score, application post-emergence” value in assay [11] came out at 5. In addition, the “ECHCG damage score, application pre-emergence” value in assay [12] came to 5.

Turning to `CN1CC(O)N(c2cc(C(C)(C)CCl)ncn2)C1=O` (stereo not shown) [Example A40], the “ABUTH damage score, application post-emergence” value in assay [1] amounted to 5. The “SETFA damage score, application pre-emergence” value in assay [2] came out at 5. The “ZEAMX damage score, application post-emergence” value in assay [3] is on record as 5. Also, the “ZEAMX damage score, application pre-emergence” value in [4] came out at 2. For the same compound, the “AMARE damage score, application pre-emergence” value in [5] is 5. Besides, the “ABUTH damage score, application pre-emergence” value in assay [6] is 5. Also, in [8], the “AMARE damage score, application post-emergence” value was 5. Besides, the “SETFA damage score, application post-emergence” value in [10] came to 5. For the same compound, the “ECHCG damage score, application post-emergence” value in assay [11] turned out to be 5. Further, the “ECHCG damage score, application pre-emergence” value in assay [12] amounted to 5.

Values taken from US9487502B2, “Chemical compounds” (Syngenta Limited, priority 2013, dated 2016).
